Legend:
M1 mAChR [1] = target: T1, M1 mAChR (Homo sapiens, UniProt P11229); experiment: β-arrestin 2 recruitment assay (BRET); assay type: cell-based; settings: for αβ (functional cooperativity with ACh) / τB (intrinsic efficacy of the modulator): antilog, in parentheses; for log τB (logarithm of intrinsic efficacy of the modulator) / log αβ (logarithm of functional cooperativity between ACh and modulator): operational model; for log αβ (logarithm of functional cooperativity between ACh and modulator): pKB constrained to binding value
T1 construct: expressed in transfected cells; host or cells: parental FlpIn CHO cells (transient, PEI)
T1 sequence (P11229 1-460): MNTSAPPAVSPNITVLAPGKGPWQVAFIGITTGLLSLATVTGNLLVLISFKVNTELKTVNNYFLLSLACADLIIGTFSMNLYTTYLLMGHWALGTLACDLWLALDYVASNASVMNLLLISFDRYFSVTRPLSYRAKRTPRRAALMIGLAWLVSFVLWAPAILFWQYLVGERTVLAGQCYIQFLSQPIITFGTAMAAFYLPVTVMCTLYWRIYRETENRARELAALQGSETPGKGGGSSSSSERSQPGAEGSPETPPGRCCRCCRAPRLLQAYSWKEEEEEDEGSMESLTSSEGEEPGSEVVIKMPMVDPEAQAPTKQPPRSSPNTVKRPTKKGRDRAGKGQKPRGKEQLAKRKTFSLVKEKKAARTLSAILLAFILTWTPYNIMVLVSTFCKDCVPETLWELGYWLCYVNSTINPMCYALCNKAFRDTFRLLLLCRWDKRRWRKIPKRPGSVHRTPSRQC
Description: The compounds were then fully characterised in two functional assays (Figure 2C and D); the Gq-coupled IP1 accumulation assay (Figure S2), which was used for the initial screening of the compounds, and a β-arrestin 2 recruitment assay (Figure S3). The operational efficacy (τB) values for the modulators and their functional cooperativity estimates with ACh (logαβACh) at both signalling pathways were estimated by applying an operational model of allosterism and agonism to the data [Eq. (3)],[16] and are listed in Table 5.
Parental FlpIn CHO cells were plated at 30000 cells/well of 96-well white Culture plates (Perkin Elmer Life Sciences) and transiently transfected with 10 ng/well of M1 Renilla luciferase (Rluc)-8 and 40 ng/well of YFP-β-arrestin 2 using linear polyethyleneimine (PEI/DNA ratio 6:1) diluted in 150 mM NaCl. DNA:PEI complexes were formed by 15 min incubation at room temperature then added to the cells and incubated at 37°C for 24 h prior to use. Cells were then washed and equilibrated in Hanks’ balanced salt solution for 1 h at 37°C. Coelenterazine h at a final concentration of 5 μM was added to each well, followed by addition of increasing concentrations of ACh in the absence or presence of increasing concentrations of each modulator. Lumines-cence and fluorescence signals were measured 5 min after agonist stimulation using the LUMIstar Omega plate reader (BMG LabTech, Offenburg, Germany). […] Data were then normalized to the maximum response to ACh.
Functional interaction studies between ACh and allosteric modulators in IP1 and β-arrestin 2 recruitment assays were analysed according to a three-parameter logistic equation or the following operational model of allosterism and agonism [Eq. (3)].[16] E=Basal+(Em−Basal)([A](KB+αβ[B])+τB[B]EC50)^n/EC50n(KB+[B])^n+([A](KB+αβ[B])+τB[B]EC50)^n where Em is the maximal possible system response, and Basal is the response in the absence of agonist. [A] and [B] are concentrations of orthosteric and allosteric ligands, respectively. KB is the equilibrium dissociation constant of allosteric ligand, and EC50 is the concentration of orthosteric agonist required to achieve half maximal response. α and β represent the magnitude of the allosteric effects on orthosteric ligand affinity and efficacy, respectively; τB is the efficacy of allosteric ligand, and n is the slope factor of the transducer function that links occupancy to response.

in vivo = settings: male, C57Bl/6 J, mouse, 10 mg/kg
Description: (§1) The study was performed using 10–12 weeks old male C57Bl/6 J naïve mice in accordance with the Australian Code of Practice for the Care and Use of Animals for Scientific Purposes, with procedures approved by the Animal Ethics Committee of the Monash Institute of Pharmaceutical Sciences.

[2] = In vivo brain and plasma exposure in mice after IP administration; settings: for cbrain, total concentration, 90 min post-dose / cplasma, total concentration, 90 min post-dose / cplasma, total concentration, 20 or 45 min post-dose: range n=3; for cbrain, total concentration, 20 or 45 min post-dose / cplasma, total concentration, 20 or 45 min post-dose: 20 min (10 mg/kg) for 2, 7f, 13c, 45 min (20 mg/kg) for BQCA; for cbrain, total concentration, 20 or 45 min post-dose: range in individual mice n=3
Description: as §1

M1 mAChR [3] = target: T1, M1 mAChR; parameters: method as in PMID 24051397; settings: ref 10a; cited from earlier work
[4] = 10 mg/kg (BQCA 20 mg/kg), range n=3, in parentheses
[5] = 20 min (10 mg/kg) for 2, 45 min (20 mg/kg) for BQCA, range n=3, in parentheses

Row | αβ (functional cooperativity with ACh) (M1 mAChR [1]) | τB (intrinsic efficacy of the modulator) (M1 mAChR [1]) | log τB (logarithm of intrinsic efficacy of the modulator) (M1 mAChR [1]) | log αβ (logarithm of functional cooperativity between ACh and modulator) (M1 mAChR [1]) | Kp (in vivo; brain/plasma, ip) | Kp uu (in vivo; brain/plasma, ip) | cbrain, total concentration, 90 min post-dose ([2]; 10 mg/kg (BQCA 20 mg/kg)) | cplasma, total concentration, 90 min post-dose ([2]; 10 mg/kg (BQCA 20 mg/kg)) | cbrain, unbound concentration, 90 min post-dose [2, 4] [µM] | cplasma, unbound concentration, 90 min post-dose [2, 4] [µM] | cbrain, total concentration, 20 or 45 min post-dose [2] | cplasma, total concentration, 20 or 45 min post-dose [2] | cbrain, unbound concentration, 20 or 45 min post-dose [2, 5] [µM] | cplasma, unbound concentration, 20 or 45 min post-dose [2, 5] [µM] | concentration at 90 min (in vivo; brain, intraperitoneal) [nM] | Structure (SMILES) | increase in binding cooperativity with ACh (αACh) compared to MIPS1650 (1) (M1 mAChR [3]) | increase in intrinsic efficacy (τB) compared to MIPS1650 (1) (M1 mAChR [3]) [fold]
1 | 63 | 2 | 0.37±0.11 | 1.80±0.35 | < 0.1 | < 0.1 | 0.0 to 0.1 µM | 0.7 to 1.1 µM | 0.0 | 0.0 | 0.7 to 1.2 µM | 15.0 to 16.5 µM | 0.0 | 0.1 | – | Cn1cc(-c2ccc(COc3ccccc3-c3cc(=O)n(C4CCCCC4O)cn3)cc2)cn1 (centres unmarked) [Compound 2, 3-(2-Hydroxycyclohexyl)-6-(2-((4-(1-methyl-1H-pyrazol-4-yl)benzyl)oxy)phenyl)pyrimidin-4(3H)-one] | fourfold increase | 11
2 | 81 | 2 | 0.23±0.08 | 1.91±0.10 | – | – | – | 11.1–13.7 (n.a.) μM | – | – | 0.3–0.4 (n.a.) μM | 31.8–40.7 (n.a.) μM | – | – | 100 | Cn1cc(-c2ccc(COc3ncccc3-c3ccn(C4CCCCC4O)c(=O)c3)cc2)cn1 (centres unmarked) [Compound 7f, 1’-(2-Hydroxycyclohexyl)-2-((4-(1-methyl-1H-pyrazol-4-yl)benzyl)oxy)-[3,4’-bipyridin]-2’(1’H)-one] | – | –
3 | 55 | 1 | –0.01±0.06 | 1.74±0.11 | – | – | n.q. | 4.9–5.4 (n.a.) μM | – | – | n.q. | 25.3–46.5 (n.a.) μM | – | – | – | CN(C)C(=O)Cn1ccc(-c2ccccc2OCc2ccc(-c3cnn(C)c3)cc2)cc1=O [Compound 13c, N,N-Dimethyl-2-(4-(2-((4-(1-methyl-1H-pyrazol-4-yl)benzyl)oxy)phenyl)-2-oxopyridin-1(2H)-yl)acetamide] | – | –
